Starred links: 1 amine or outer side, 2 acyl side, 3 side chain; linkers in the order of their positions; H or OH if unused. Positions of bridges follow the written chain, without caps; N, C: chain ends. Non-standard residues stand in square brackets, D forms with d. Residues, ends and D or L forms follow the SMILES beside them. ξ: configuration not given here. Ile(4R-OH,5-OH) = C[C@H]([C@H](N)C(=O)O)[C@@H](O)CO; X1 = O=C([C@H](Cn1cc2ccccc2c1[*:3])N[*:1])[*:2]; Hyp = O=C(O)[C@@H]1C[C@@H](O)CN1; Dap = NC[C@H](N)C(=O)O; ξC = NC(CS)C(=O)O
Legend:
CHO cells [1] = format: cell-based; settings: for toxicity (cytotoxicity): triplicate
Method: FIG. 6: Cytotoxicity assays—CHO cells were incubated with α-amanitin, the monocyclic octapeptide precursor and the FlICk-amanitin-1 for 72 h in triplicate and cell viability was assessed by spectrophotometry with MTT indicator.
FIGS. 11A-11B: MTT cell viability assay against CHO cells: (A) alpha-amanitin; (B) FlICk-amanitin.
Both FlICk amanitin and authentic α-amanitin (purchased from Sigma Aldrich) were dissolved in H2O. The FlICk amanitin concentrations used were 100 μM, 20 μM, 4 μM, 0.8 μM, 0.16 μM, 0.032 μM, 0.0064 μM, 0.00128 μM. The α-amanitin concentrations used were 10 μM, 2 μM, 0.4 μM, 0.08 μM, 0.016 μM, 0.0032 μM, 0.00064 μM, 0.000128 μM, 0.0000256 μM. The cell culture and MTT assay procedures were carried out as per our report on the total synthesis of α-amanitin^38. The MTT assays were run in triplicate. The IC50 assay curves were produced using Prism Software.

melanocortin receptors = settings: literature value; cited from earlier work
CHO cells [2] = settings: literature value, read-out: IC50 (cytotoxic to CHO cells); cited from earlier work

With CC[C@H](C)[C@@H]1NC(=O)CNC(=O)[C@@H]2Cn3cc4ccccc4c3SCC(NC(=O)CNC1=O)C(=O)N[C@@H](CC(N)=O)C(=O)N1C[C@H](O)C[C@H]1C(=O)N[C@@H]([C@@H](C)[C@@H](O)CO)C(=O)N2 [FlICk-amanitin-1] (cyclo(GIG[ξC]N[Hyp][Ile(4R-OH,5-OH)][X1]); thioether 4-8) the “fold less toxic than α-amanitin” value (CHO cells [1]; 72 h, MTT) was “approximately 100 fold”, the “toxicity (cytotoxicity)” value (CHO cells [1]; 72 h, MTT) was “detectable toxicity” and the “fold less toxic than dideoxy-amanitin” value (CHO cells [1]; versus dideoxy-amanitin IC50 of 2 μM) was 20 fold.
In the case of CC[C@H](C)[C@@H]1NC(=O)CNC(=O)[C@H](CN)NC(=O)[C@H]([C@@H](C)[C@@H](O)CO)NC(=O)[C@@H]2C[C@@H](O)CN2C(=O)[C@H](CC(N)=O)NC(=O)[C@H](CS)NC(=O)CNC1=O [monocyclic octapeptide precursor, Cyclo-[DhIle-Dap-Gly-Ile-Gly-Cys-Asn-Hyp]] (cyclo(CN[Hyp][Ile(4R-OH,5-OH)][Dap]GIG)), the “toxicity (cytotoxicity)” value (CHO cells [1]; 72 h, MTT) is reported as “no detectable toxicity”.
For “N-Acetyl-L-norleucyl-L-α-aspartyl-L-histidyl-D-phenylalanyl-L-arginyl-L-tryptophyl-L-lysinamide (2→7)-lactam [Melanotan-II]”, the Kd (melanocortin receptors) is listed as about 1 nM.
For α-amanitin, the IC50 (CHO cells [2]) is given as about 500 nM.
